In US20210341378A1, “HIGH-CONTENT IMAGING OF MICROFLUIDIC DEVICES” (priority 2019, published 2021):

Legend:
[1] = tested on: microfluidic devices seeded with human liver cells; test: Lipid accumulation (Nile red / AdipoRed), human Liver-Chip; type: cell-based
Text: (§1) Microfluidic devices seeded with liver cells were stained in the upper channel with 5(6)-Carboxy-2′,7′-dichlorofluorescein diacetate (CDFDA) (ThermoFisher) to visualize bile canaliculi and MRP2 activity, cholyl-lysyl-fluorescein (CLF) (Corning) to visualize bile canaliculi and BSEP activity, Nile red (ThermoFisher) or AdipoRed (Lonza) to visualize lipid droplet accumulation, Tetramethylrhodamine, methyl ester (TMRM) (ThermoFisher) to visualize active mitochondria, and CellROX® (ThermoFisher) to visualize cellular oxidative stress. Each staining solution was prepared in blank medium or compound dosing medium and added to the upper channel, incubated for 15 minutes at 37° C., and washed three times with medium. The stained microfluidic devices were imaged using a specific filter, and were de-blurred with Olympus cellSens software. Using ImageJ-Fiji, the fluorescent channel images were histogram adjusted to remove background, followed by fluorescence quantification using the Integrated Density calculation function.
(§2) The stained microfluidic devices were imaged using the TRITC filter, and were de-blurred with Olympus cellSens software. Using ImageJ-Fiji, the fluorescent channel images were histogram adjusted to remove background, followed by fluorescence quantification using the Integrated Density calculation function. N=5 FOVs per microfluidic device were analyzed for conditions: vehicle (0.1% DMSO), FIAU dosing groups, and MTX dosing groups.

[2] = cited from earlier work
[3] = tested on: microfluidic devices seeded with human liver cells; test: Cytokine release (IL-6, MCP-1, IP-10) from vascular channel, human Liver-Chip; type: cell-based; settings: for release of IL-6 / release of MCP-1: 14 days
Method: Cytokines: Release of IL-6, MCP-1, and IP-10 from the vascular channel was quantified using U-PLEX biomarker human assays (Meso Scale Diagnostics, Rockville, Md., USA) and the assays were performed according to the protocol provided by the vendor.

[4] = tested on: microfluidic devices seeded with rat liver cells; test: Albumin secretion (ELISA), rat Liver-Chip; type: cell-based; settings: FIAU 1, 10 and 30 μM, rat chip
Text: Prior to cell seeding, microfluidic devices, in this case S-I Chips (Emulate, Inc. Boston, Mass., USA), were functionalized using Emulate's proprietary protocols and reagents (ER™), including those described herein. After surface functionalization, both channels of the microfluidic device were coated with species-specific extracellular matrices (ECM). For the human bound microfluidic device, a mixture of collagen type I (Corning, Corning, N.Y., USA) and fibronectin, e.g. bovine, (Gibco) was used; for the rat bound microfluidic devices a mixture of collagen type IV, e.g. human placenta, (Sigma-Aldrich, St. Louis, Mo., USA) and fibronectin (Gibco) was used; for the dog bound microfluidic devices a mixture of collagen I (Corning), collagen type IV (Sigma-Aldrich), and fibronectin (Gibco) was used. […] For the dual-cell culture model (hepatocytes and endothelial cells), the LSECs were seeded at a concentration of 2-4 million cells/mL in the lower vascular channel. […] Albumin secretion from the upper channel was quantified using ELISA kits for human, rat, and dog models effluent samples (human and rat: Abcam; dog: Immunology Consultants Laboratory, Inc., Portland, Oreg., USA) and the assays were performed according to the protocol provided by each vendor.

[5] = tested on: microfluidic devices seeded with human liver cells; test: Release of DILI biomarkers (miR-122, alpha-GST, keratin 18), human Liver-Chip; type: cell-based
Text: Exemplary Biomarker, e.g. DILI: Keratin 18 levels were quantified in human model effluent samples from both the hepatocyte and vascular channels using the M65 EpiDeath CK18 ELISA Kit (DiaPharma, Detroit, Mich., USA). The assay was run following the vendor protocol using a standard curve ranging from 0-5,000 U/L. Additionally, a standard curve ranging from 0-500 U/L was generated independently for quality control.
Exemplary Biomarker, e.g. DILI: Alpha Glutathione S-Transferase (α-GST) levels were quantified in human model effluent samples from the upper channel using an ELISA kit (DiaPharma). The assay was run following the vendor protocol using a standard curve ranging from 0-64 μg/L. Additionally, a standard curve ranging from 0-50 μg/L was generated independently for quality control.
Exemplary Biomarker, e.g. DILI: Mir-122: Isolation of micro-RNAs was performed on upper and lower chamber eluates using Qiagen's (Hilden, Germany) miRNA isolation kit for serum and plasma. A total volume of 50 μL was used for isolation. Isolation was performed according to manufacturer's protocol using a 56.5 pM oligonucleotide spike-in control. Samples were eluted with 14 μL RNase-free water. Reverse transcription was performed using Thermo Fisher Scientific's TaqMan™ MicroRNA Reverse Transcription Kit according to the manufacturer's protocol. A total reaction volume of 15 μL was used. Real-time PCR was performed using Thermo Fisher Scientific's TaqMan™ Micro-RNA Assays according to manufacturer's protocol. A total reaction volume of 10 μL was used. Normalized rrCt was used for fold-change analysis.

[6] = tested on: microfluidic devices seeded with rat liver cells; test: Lipid accumulation (Nile red), rat Liver-Chip; type: cell-based; settings: FIAU 1, 10 and 30 μM for 10 days
Text: as §1, with “The stained microfluidic devices were imaged using a specific filter, and were de-blurred with Olympus cellSens software.” left out
as §2

[7] = tested on: microfluidic devices seeded with human liver cells; test: Albumin secretion (ELISA), human Liver-Chip; type: cell-based
Text: Prior to cell seeding, microfluidic devices, in this case S-I Chips (Emulate, Inc. Boston, Mass., USA), were functionalized using Emulate's proprietary protocols and reagents (ER™), including those described herein. After surface functionalization, both channels of the microfluidic device were coated with species-specific extracellular matrices (ECM). For the human bound microfluidic device, a mixture of collagen type I (Corning, Corning, N.Y., USA) and fibronectin, e.g. bovine, (Gibco) was used; for the rat bound microfluidic devices a mixture of collagen type IV, e.g. human placenta, (Sigma-Aldrich, St. Louis, Mo., USA) and fibronectin (Gibco) was used; for the dog bound microfluidic devices a mixture of collagen I (Corning), collagen type IV (Sigma-Aldrich), and fibronectin (Gibco) was used. […] For the dual-cell culture model (hepatocytes and endothelial cells), the LSECs were seeded at a concentration of 2-4 million cells/mL in the lower vascular channel. […] After cell seeding, the upper channel of the microfluidic device was maintained in William's E Medium (WEM) containing Glutamax (Gibco), ITS+ (Corning), dexamethasone (Sigma-Aldrich), ascorbic acid (Sigma-Aldrich), fetal bovine serum (FBS) (Sigma-Aldrich), and Penicillin/Streptomycin (Sigma-Aldrich). The vascular channel of the microfluidic device was maintained with species-specific endothelial media (Emulate, Inc.). Two days after seeding, the microfluidic devices were connected to the Human Emulation System™ (Emulate, Inc.), as described in part herein, and both of the microfluidic device channels were perfused at 30 μL/hr to provide a continuous supply of fresh media for the duration of the experiments. Albumin secretion from the upper channel was quantified using ELISA kits for human, rat, and dog models effluent samples (human and rat: Abcam; dog: Immunology Consultants Laboratory, Inc., Portland, Oreg., USA) and the assays were performed according to the protocol provided by each vendor.

MRP2 = target: T1, MRP2 (Homo sapiens, UniProt Q92887); test: Biliary efflux of CDFDA (MRP2 activity), human Liver-Chip; type: cell-based; settings: TAK-875 3, 10, 30 μM
T1 construct: Primary rat, dog or human hepatocytes were cultured in the upper parenchymal channel; endogenous in cells; host or cells: primary human hepatocytes in a microfluidic Liver-Chip
T1 sequence (Q92887 whole entry): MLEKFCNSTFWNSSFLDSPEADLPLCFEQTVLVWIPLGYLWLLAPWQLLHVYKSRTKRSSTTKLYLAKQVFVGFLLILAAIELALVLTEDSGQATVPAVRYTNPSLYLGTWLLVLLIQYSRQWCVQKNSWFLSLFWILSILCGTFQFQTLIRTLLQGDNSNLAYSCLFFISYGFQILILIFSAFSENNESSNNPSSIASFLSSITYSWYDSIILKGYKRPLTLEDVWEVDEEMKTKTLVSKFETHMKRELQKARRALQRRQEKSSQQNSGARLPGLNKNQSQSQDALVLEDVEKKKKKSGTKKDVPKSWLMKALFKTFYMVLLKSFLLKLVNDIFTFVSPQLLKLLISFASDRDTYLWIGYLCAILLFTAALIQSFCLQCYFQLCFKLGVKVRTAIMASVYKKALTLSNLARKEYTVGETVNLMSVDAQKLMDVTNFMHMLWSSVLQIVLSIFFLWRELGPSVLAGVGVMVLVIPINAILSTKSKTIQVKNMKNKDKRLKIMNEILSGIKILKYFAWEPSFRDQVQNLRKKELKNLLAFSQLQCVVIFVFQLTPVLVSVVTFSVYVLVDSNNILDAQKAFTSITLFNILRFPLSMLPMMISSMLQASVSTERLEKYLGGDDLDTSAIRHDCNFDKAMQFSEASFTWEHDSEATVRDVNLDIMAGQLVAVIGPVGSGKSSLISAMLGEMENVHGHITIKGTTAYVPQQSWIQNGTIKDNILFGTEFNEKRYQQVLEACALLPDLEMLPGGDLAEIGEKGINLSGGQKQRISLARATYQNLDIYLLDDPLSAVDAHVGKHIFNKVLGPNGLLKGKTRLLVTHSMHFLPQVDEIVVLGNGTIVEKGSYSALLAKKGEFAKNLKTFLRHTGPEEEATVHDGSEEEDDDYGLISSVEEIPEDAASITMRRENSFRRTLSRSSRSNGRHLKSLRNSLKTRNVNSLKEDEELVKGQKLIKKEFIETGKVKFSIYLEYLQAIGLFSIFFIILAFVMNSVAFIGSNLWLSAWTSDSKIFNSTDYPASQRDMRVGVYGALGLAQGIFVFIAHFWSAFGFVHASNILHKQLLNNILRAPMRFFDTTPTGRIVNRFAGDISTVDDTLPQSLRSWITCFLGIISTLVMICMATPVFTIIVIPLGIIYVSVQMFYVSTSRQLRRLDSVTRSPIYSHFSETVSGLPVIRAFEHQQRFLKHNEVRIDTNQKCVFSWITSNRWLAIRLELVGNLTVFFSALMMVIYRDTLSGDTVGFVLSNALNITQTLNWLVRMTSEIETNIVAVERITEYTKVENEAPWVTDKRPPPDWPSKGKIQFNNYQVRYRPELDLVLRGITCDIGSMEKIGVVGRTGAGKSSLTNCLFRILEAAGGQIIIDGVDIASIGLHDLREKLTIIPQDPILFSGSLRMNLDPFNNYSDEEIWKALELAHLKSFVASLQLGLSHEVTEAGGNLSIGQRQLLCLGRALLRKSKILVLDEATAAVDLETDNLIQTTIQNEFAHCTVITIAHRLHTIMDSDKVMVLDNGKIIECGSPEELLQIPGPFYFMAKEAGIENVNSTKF
Method: Both a brightfield and a fluorescence image was taken from each field of view. […] CLF-labeled regions that most likely to corresponded to bile canaliculi were automatically identified based on geometric criteria and retained only if they co-localized with a bile canaliculi signal in channel 1. […] These criteria were determined empirically using a small test set of images and then applied to images for the analysis. […] The data for treated and control samples were quantified by computing the area percentage of CLF-labeled bile canaliculi within each field of view (FOV).

[8] = tested on: microfluidic devices seeded with human liver cells; test: ROS (CellROX) live staining, human Liver-Chip; type: cell-based; settings: TAK-875, human chip
[9] = tested on: mitochondrial membrane potential; test: TMRM staining (mitochondrial membrane potential), human Liver-Chip; type: cell-based; settings: TAK-875 3, 10, 30 μM, 8 or 15 days
Text: as §1

stellate cells = test: Stellate cell activation (alpha-SMA), human Liver-Chip; type: cell-based; settings: TAK-875 10 or 30 uM for 15 days
Method: Microfluidic devices seeded with liver cells and static sandwich plate cultures were fixed with 4% paraformaldehyde for 15 minutes at room temperature, washed with PBS, and permeabilized (saponin 1% with 10% serum in PBS). Blocking and incubation with the primary antibodies (overnight in PBS containing 1% BSA or PBS containing 10% serum and 1% BSA) was followed by a two-hour incubation with secondary antibodies (Cell Signaling, Danvers, Mass., USA) in the same blocking buffer. Immunostaining was performed with specific primary antibodies (anti-MRP2, anti-stabilin-1, anti-BSEP, anti-α-SMA, anti-CD68; Abcam, Cambridge, Mass., USA) and images were acquired with either an Olympus fluorescence microscope (IX83) or Zeiss confocal microscope (AxiovertZ1 LSM880).
The number of CD68- or α-SMA-positive cells in the vascular channel in each group was counted in each field of view ([…]) and quantified.
The fluorescent channel (588) was first background subtracted and processed using the median filter of Image J. After processing, the signal was thresholded using adaptive thresholding function of Image J (Otsu method) to extract fluorescent regions and to measure the relative intensity of the fluorescent signal. N=4 to 6 FOVs per microfluidic device from each microfluidic device were analyzed. […]

In the case of O=c1[nH]c(=O)n([C@@H]2O[C@H](CO)[C@@H](O)[C@@H]2F)cc1I [FIAU, fialuridine], the lipid accumulation ([1]; daily 1, 10 and 30 μM for 10 days, human quadruple-cell chip) is given as “dose-dependent increase”, the “patients with liver failure and deaths” value ([2]; Phase II clinical trials) is given as 5/15 and the “cytokines/chemokines including IP-10” value ([3]; treated Liver-Chips (discussion)) is given as “release”. For the same compound, the “hepatocyte function (albumin secretion)” value [4] was “no effects”, the “keratin 18 (K-18)” value ([5]; FIAU 10 days, human chip) was “release” and the miR122 ([5]; FIAU 10 days, human chip) was “release”. For the same compound, the α-GST ([5]; FIAU 10 days, human chip) was “release”, the lipid accumulation [6] was “no effects” and the “concentrations giving dose-dependent decline in albumin secretion” value ([7]; FIAU, human quadruple-cell chip, 7 days) was ≥ 1000 nM.

For Cc1cc(OCCCS(C)(=O)=O)cc(C)c1-c1cccc(COc2ccc3c(c2)OC[C@H]3CC(=O)O)c1 [TAK-875], the lipid droplet accumulation ([1]; TAK-875, end of the 2-week treatment) is given as “detected”, the “biliary efflux of the MRP2 substrate CDFDA” value (MRP2) is given as “dose-dependent decrease” and the “incidence of treatment-related elevations in transaminases” value ([2]; human, in vivo) is given as 2.7%. The “release of IL-6” value ([3]; TAK-875 10 μM) was “significant release”, the “release of MCP-1” value ([3]; TAK-875 10 μM) was “significant release” and the “release of IL-6” value ([3]; TAK-875 30 μM) was “not observed”. For the same compound, the “release of MCP-1” value ([3]; TAK-875 30 μM) was “not observed”, the “formation of ROS” value [8] was “increase” and the “mitochondrial potential sensitive dye TMRM” value [9] was “dose-related and time-dependent redistribution”. For the same compound, the K18 ([5]; TAK-875 30 μM, 14 days) was “increased release”, the “% aSMA positive area from the vascular channel” value (stellate cells) was “Not significant” and the albumin production ([7]; TAK-875 30 μM, 14 days) was “decreased”.
